ChEMBL document CHEMBL4825768 (ACS Med Chem Lett, 2021)
pIC50: −log10 of the molar value.

Experiments:
GTPase KRas [1] = target: T1, GTPase KRas (Homo sapiens, UniProt P01116, G12C); experiment: (§1) Inhibition of GDP-bound KRAS G12C mutant (1 to 169 residues) (unknown origin) assessed as inhibition of SOS-mediated nucleotide exchange pretreated with KRAS for 20 hrs followed by incubation with SOS (564 to 1049 residues) and GTP for 30 mins and later incubated with GST-tagged cRAF (1 to 149 residues) for 10 mins by AlphaLISA assay; format: single protein
GTPase KRas [2] = target: T1, GTPase KRas; experiment: as §1, with “5 mins” for “20 hrs”; format: single protein
[3] = tested on: GTPase KRas (Homo sapiens), P01116 [G12D]; experiment: Binding affinity to GDP-bound KRAS G12D mutant (unknown origin) assessed as bound fraction at 100 uM incubated for 20 hrs by RF-MS analysis relative to control
GTPase KRas [4] = target: T1, GTPase KRas; experiment: Inhibition of KRAS G12C mutant in human MIA PaCa-2 cells assessed as reduction in phosphorylated ERK1/2 level incubated for 2 hrs by MSD assay; format: cell-based

Structure (SMILES) | pIC50 (GTPase KRas [1]) | pIC50 (GTPase KRas [2]) | Activity [3] | pIC50 (GTPase KRas [4])
Cc1ccnc(C(C)C)c1-n1c(=O)nc(N2CC(NC(=O)C3CO3)C2)c2cc(Cl)c(-c3ccccc3F)nc21 (centres undefined) | 7.74 | 5.36 |  | 
Cc1ccnc(C(C)C)c1-n1c(=O)nc(N2CCN(C(=O)C3OC3C)C[C@@H]2C)c2cc(Cl)c(-c3ccccc3F)nc21 (some centres undefined) | 7.02 | 4.75 |  | 
Cc1ccnc(C(C)C)c1-n1c(=O)nc(N2C[C@@H](C)N(C(=O)[C@H]3CO3)C[C@@H]2C)c2cc(Cl)c(-c3c(O)cccc3F)nc21 | 7.62 | 6.19 | 8.1% | 
Cc1ccnc(C(C)C)c1-n1c(=O)nc(N2CCN(C(=O)[C@H]3CO3)C[C@@H]2C)c2cc(Cl)c(-c3ccccc3F)nc21 | 7.57 | 5.42 | 3.4% | 
CCOC(=O)[C@@H]1O[C@H]1C(=O)N1CCN(c2nc(=O)n(-c3c(C)ccnc3C(C)C)c3nc(-c4ccccc4F)c(Cl)cc23)[C@@H](C)C1 | 8.30 | 6.67 | 3.4% | 7.02
COC(=O)/C=C/C(=O)N1CCN(c2nc(=O)n(-c3c(C)ccnc3C(C)C)c3nc(-c4ccccc4F)c(Cl)cc23)[C@@H](C)C1 | 7.59 | 7.02 |  | 7.21
Cc1ccnc(C(C)C)c1-n1c(=O)nc(N2C[C@@H](C)N(C(=O)[C@H]3CO3)C[C@@H]2C)c2cc(Cl)c(-c3c(N)cccc3F)nc21 | 7.82 | 6.25 | 15.8% | 
Cc1ccnc(C(C)C)c1-n1c(=O)nc(N2CCN(C(=O)[C@@H]3O[C@H]3CN3CCCCC3)C[C@@H]2C)c2cc(Cl)c(-c3ccccc3F)nc21 | 8.30 | 5.95 |  | 
Cc1ccnc(C(C)C)c1-n1c(=O)nc(N(C)C2CN(C(=O)C3CO3)C2)c2cc(Cl)c(-c3ccccc3F)nc21 (centres undefined) | 6.64 | 4.86 |  | 
Cc1ccnc(C(C)C)c1-n1c(=O)nc(N2CCN(C(=O)[C@@H]3O[C@H]3CO)C[C@@H]2C)c2cc(Cl)c(-c3ccccc3F)nc21 | 7.19 | 5.20 |  | 
Cc1ccnc(C(C)C)c1-n1c(=O)nc(N2CCN(C(=O)C=O)C[C@@H]2C)c2cc(Cl)c(-c3ccccc3F)nc21 | 7.41 | 6.21 |  | 6.15
